pIC50: −log10 of the molar value. Structures can show the parent of a compound that is named as a salt.
How the values were obtained:
[1] = tested on: rats; test: Test C: Formalin paw test; format: in vivo; conditions: po, rat, p.o., read-out: ED50 values Test C, inhibition of flinching
Experimental: Formalin Paw Test (Test C)
Male rats (Chbb: THOM) weighing 250-300 grams are used. 20 μl of a 2% formaldehyde solution is injected into the plantar region of the right hind paw. Immediately afterwards, the number of flinches (spasms of the affected hind paw) and the time spent licking the affected paw are recorded. After 5 minutes in each case the values are collated into epochs. Time-activity curves for flinches and licking are plotted from the epoch values. Typically, two phases of the formalin activity (flinches, licking) are observed. A first phase of 0-10 minutes and a second phase of 10-60 minutes. Between the two phases the number of flinches and the duration of licking fall towards 0 (interphase). The areas under the curve for the first phase and for the second phase are determined from the timeactivity curves. Usually 5 animals are used in each case for the control, placebo and dose of active substance. The results of the doses of active substance are compared with those of the control and ED50 values are calculated. ED50 is the dose at which the control values are inhibited by 50%.
Test C: Formalin-paw Test (Rat)
Inhibition of flinching (ED50 values in mg/kg; p.o.)

[2] = biological target: T1, N-type calcium channel in HEK-293-N26 cells (Homo sapiens, UniProt Q00975); test: Test B: Patch-clamp tests, N-type calcium channel blockade; format: cell-based
T1 construct: expressed in transfected cells; host or cells: HEK-293 (clone HEK-293-N26)
T1 sequence (Q00975 whole entry): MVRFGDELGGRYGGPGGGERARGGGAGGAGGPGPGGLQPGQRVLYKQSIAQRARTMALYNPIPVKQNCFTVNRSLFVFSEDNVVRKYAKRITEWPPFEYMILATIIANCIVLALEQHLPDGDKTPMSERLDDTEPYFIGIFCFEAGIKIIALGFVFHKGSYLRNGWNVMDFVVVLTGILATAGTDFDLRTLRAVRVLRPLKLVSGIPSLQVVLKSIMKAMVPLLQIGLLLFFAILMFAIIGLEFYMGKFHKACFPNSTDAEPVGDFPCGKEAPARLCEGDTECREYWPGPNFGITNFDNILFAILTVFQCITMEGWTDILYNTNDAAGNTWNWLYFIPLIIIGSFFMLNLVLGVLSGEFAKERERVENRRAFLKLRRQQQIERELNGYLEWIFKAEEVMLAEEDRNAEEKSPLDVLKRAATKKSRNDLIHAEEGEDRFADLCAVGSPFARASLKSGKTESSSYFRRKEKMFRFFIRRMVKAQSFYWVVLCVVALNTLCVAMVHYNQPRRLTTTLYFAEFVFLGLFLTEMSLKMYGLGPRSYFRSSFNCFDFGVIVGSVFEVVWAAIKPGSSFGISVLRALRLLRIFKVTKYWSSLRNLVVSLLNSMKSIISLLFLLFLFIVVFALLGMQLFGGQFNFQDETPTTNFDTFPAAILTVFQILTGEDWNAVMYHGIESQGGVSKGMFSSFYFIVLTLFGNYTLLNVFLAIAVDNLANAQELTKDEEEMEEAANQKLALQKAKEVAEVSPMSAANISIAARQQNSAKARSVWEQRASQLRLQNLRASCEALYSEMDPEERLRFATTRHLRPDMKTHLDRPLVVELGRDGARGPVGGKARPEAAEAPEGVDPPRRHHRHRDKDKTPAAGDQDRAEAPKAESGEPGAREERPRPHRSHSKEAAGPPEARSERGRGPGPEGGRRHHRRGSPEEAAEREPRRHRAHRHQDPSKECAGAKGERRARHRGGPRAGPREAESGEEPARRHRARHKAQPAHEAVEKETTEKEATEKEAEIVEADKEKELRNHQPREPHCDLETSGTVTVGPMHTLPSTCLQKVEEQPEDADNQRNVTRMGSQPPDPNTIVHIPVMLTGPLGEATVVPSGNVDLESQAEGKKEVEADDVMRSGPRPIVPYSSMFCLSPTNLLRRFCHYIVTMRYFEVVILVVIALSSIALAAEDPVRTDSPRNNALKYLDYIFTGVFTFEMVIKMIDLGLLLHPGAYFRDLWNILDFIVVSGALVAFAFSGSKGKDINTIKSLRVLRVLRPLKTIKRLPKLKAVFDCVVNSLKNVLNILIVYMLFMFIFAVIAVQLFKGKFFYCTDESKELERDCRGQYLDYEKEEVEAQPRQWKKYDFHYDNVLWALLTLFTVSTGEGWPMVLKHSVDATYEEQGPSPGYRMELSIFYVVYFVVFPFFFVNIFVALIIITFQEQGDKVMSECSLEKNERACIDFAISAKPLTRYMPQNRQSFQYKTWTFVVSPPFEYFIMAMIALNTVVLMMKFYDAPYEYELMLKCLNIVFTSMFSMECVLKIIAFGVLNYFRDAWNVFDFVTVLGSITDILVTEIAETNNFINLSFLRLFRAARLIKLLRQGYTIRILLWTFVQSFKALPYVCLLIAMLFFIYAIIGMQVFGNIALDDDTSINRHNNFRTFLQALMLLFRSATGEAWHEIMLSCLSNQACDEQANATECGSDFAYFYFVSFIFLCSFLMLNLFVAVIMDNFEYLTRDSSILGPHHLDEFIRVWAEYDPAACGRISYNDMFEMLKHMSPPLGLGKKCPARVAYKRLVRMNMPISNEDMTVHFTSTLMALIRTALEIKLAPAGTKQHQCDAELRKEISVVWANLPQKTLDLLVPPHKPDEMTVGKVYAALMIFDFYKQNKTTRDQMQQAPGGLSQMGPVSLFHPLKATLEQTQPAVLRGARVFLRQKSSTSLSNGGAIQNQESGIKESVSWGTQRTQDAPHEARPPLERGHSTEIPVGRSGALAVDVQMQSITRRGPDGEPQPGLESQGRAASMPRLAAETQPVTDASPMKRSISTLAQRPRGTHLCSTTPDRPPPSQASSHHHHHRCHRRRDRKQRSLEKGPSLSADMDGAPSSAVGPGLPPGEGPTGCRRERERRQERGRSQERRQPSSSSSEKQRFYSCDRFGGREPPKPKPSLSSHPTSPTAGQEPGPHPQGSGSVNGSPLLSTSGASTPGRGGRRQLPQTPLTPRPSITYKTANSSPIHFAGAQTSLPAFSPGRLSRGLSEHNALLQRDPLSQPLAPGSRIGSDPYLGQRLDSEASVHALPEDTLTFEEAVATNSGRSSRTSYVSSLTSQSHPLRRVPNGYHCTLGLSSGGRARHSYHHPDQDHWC
T1 sequence (P54289 25-956 partner limits assumed): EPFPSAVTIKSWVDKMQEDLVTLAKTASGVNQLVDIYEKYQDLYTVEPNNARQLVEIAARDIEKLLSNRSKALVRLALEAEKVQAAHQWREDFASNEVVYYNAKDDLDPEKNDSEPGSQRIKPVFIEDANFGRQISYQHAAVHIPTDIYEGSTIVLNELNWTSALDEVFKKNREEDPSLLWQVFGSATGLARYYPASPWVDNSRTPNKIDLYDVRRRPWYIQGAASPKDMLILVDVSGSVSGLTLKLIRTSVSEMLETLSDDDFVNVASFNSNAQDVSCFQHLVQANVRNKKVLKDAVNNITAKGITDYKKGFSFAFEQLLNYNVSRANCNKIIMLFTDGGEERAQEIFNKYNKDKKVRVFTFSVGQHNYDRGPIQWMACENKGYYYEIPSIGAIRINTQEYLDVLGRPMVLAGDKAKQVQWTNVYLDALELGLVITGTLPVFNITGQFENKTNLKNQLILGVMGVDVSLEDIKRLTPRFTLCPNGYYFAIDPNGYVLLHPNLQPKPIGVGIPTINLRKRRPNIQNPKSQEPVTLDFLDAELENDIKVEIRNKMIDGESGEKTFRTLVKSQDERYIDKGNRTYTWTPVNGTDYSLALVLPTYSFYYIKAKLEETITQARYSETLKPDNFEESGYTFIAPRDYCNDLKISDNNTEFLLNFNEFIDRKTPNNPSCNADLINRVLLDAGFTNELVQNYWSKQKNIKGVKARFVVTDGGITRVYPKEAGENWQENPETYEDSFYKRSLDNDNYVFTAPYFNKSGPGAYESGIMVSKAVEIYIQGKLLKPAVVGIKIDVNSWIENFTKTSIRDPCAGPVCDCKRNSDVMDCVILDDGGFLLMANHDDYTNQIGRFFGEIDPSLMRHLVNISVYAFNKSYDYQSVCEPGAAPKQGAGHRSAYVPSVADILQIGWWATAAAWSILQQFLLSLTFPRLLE
T1 sequence (P54289 957-1103 partner limits assumed): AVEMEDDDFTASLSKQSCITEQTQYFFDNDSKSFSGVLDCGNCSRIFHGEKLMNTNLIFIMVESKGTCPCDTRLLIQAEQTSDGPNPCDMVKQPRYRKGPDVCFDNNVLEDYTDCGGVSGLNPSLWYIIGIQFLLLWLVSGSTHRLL
T1 sequence (P54284 whole entry partner): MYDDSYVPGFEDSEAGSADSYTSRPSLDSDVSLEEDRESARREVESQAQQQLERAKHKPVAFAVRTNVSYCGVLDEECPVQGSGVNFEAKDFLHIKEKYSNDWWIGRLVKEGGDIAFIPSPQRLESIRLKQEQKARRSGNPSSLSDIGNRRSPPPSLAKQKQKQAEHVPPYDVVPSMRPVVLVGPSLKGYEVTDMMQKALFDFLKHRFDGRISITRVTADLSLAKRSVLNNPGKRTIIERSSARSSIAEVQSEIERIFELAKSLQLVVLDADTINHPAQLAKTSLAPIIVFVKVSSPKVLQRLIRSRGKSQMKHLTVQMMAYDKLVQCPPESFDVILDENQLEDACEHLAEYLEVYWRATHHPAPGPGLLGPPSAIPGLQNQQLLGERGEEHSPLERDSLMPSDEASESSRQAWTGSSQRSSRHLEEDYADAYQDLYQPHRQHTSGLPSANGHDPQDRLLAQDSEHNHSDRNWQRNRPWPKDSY
Description: (§1) The concentration of the half-maximum inhibition (IC50-values) for the selected substances is in the submicro- to micromolar range. Independently of this optical method of measurement, the inhibitory effect on the N-type calcium channels was confirmed independently, by an electrophysiological method, using the patch-clamp technique on the same type of cells (Test B).
Test B: Patch-clamp Tests
N-type calcium channel blockade in HEK-293-N26 cells

[3] = biological target: T2, N-type calcium channels in HEK-293 cell (Homo sapiens, UniProt Q00975); test: Test A: Calcium imaging, inhibition of N-type calcium channels (FLUO-3, 80 mM K+ depolarisation); format: cell-based; conditions: FLUO-3 charged recombinant HEK-293 cells, potassium depolarisation (80 mM K+)
T2 construct: expressed in transfected cells; host or cells: HEK-293 (clone HEK-293-N26)
T2 sequence (Q00975 whole entry): as the sequence (Q00975 whole entry) above
T2 sequence (P54289 25-956 partner limits assumed): as the sequence (P54289 25-956 partner limits assumed) above
T2 sequence (P54289 957-1103 partner limits assumed): as the sequence (P54289 957-1103 partner limits assumed) above
T2 sequence (P54284 whole entry partner): as the sequence (P54284 whole entry partner) above
Description: as §1
Inhibition of N-type calcium channels in HEK-293 cell

[4] = tested on: rats; test: Test D: Chronic Constriction Injury (CCI, Bennett model), mechanohyperalgesia; format: in vivo; conditions: po, rat
Description: Chronic Constriction Injury (CCI, Bennett Model) (Test D)
The principle of the method is producing hyperalgesia and allodynia in the plantar region (the sole of the hind paw). Sprague-Dawley rats (Harlan) weighing 250-350 grams are used.
Under anaesthetic, four loose ligatures are placed on the sciatic nerve of the left hind paw at intervals of 2.5 mm in such a way that the perinerval circulation is affected but not prevented. This leads to extravasation and oedema, resulting in neuropathy of the nerves which innervate the planter region. The right hind paw is treated in the same way without the ligatures. Control tests for allodynia and/or hyperalgesia are carried out without the administration of any substance before and 8-10 days after the operation. Then substance tests are carried out at intervals of 2-3 days. The effects of the substance on the various parameters and ED50 values are calculated (=doses which inhibit by 50% the allodynic or hyperalgesic effects of the stimulation).
Mechano-hyperalgesia (Pin Prick)
The animals are placed in cages with a wire mesh base. Using a blunt needle (e.g. a large safety pin) the skin of the sole of the paw (Plantar-region) is touched so that an indentation is only just produced. Similarly, the sole of the paw is pinched gently with forceps. […] The number and duration of positive reactions of the operated and control paws are measured. […]

| Compound | pIC50 [2] | pIC50 [3] | melting point | other results |
| --- | --- | --- | --- | --- |
| COc1cc2c(cc1OC)C(c1ccc(Oc3ccccc3)cc1)=NCC2 [Example 1] | 5.74 | 5.73 |  | ED50 [1]: 10 mg/kg |
| CC1(C)CN=C(c2ccc(Oc3cc(C(F)(F)F)cc(C(F)(F)F)c3)cc2)c2ccccc21 (as salt: salt) [Example 16] |  |  | 217 to 218 °C |  |
| COc1cc2c(c(OC)c1OC)CCN=C2c1ccc(Oc2ccccc2)cc1 [Example 3] |  | 5.71 |  |  |
| COc1cc2c(cc1OC)C(C)(C)CN=C2c1ccc(Oc2ccc(C(F)(F)F)cc2)cc1 [Example 5] | 5.88 | 6.09 |  | ED50 [1]: 15 mg/kg; ED50 [4]: 10 mg/kg |
| FC(F)(F)c1ccc(Oc2ccc(C3=NCCc4ccccc43)cc2)cc1 (as salt: salt) [Example 17] |  |  | 234 to 235 °C |  |
| COc1ccc2c(c1)C(C)(C)CN=C2c1ccccc1Oc1cc(C(F)(F)F)cc(C(F)(F)F)c1 [Example 12] | 5.80 | 5.26 |  |  |
| COc1cc2c(cc1OC)C(C)(C)CN=C2c1cccc(Oc2ccccc2)c1 [Example 15] |  | 5.79 |  |  |
| FC(F)(F)c1ccc(Oc2ccc(C3=NCCc4ccccc43)cc2)cc1 [Example 17] | 5.09 |  |  |  |
| CC1(C)CN=C(c2ccccc2Oc2cc(C(F)(F)F)cc(C(F)(F)F)c2)c2ccccc21 [Example 9, 3,4-dihydro-4,4-dimethyl-1-[2-(3,5-ditrifluoromethyl)phenoxy]phenyl-isoquinoline hydrochloride] | 6.59 | 5.40 |  | ED50 [1]: 10 mg/kg |
| COc1ccc2c(c1)C(C)(C)CN=C2c1ccccc1Oc1cc(C(F)(F)F)cc(C(F)(F)F)c1 (as salt: salt) [Example 12] |  |  | 122 to 123 °C |  |
| CCCCCCOc1ccc(C2=NCCc3cc(OC)c(OC)cc32)cc1 (as salt: salt) [Example 2] |  |  | 172 °C |  |
| COc1cc2c(cc1OC)C(C)(C)CN=C2c1cccc(Oc2cc(C(F)(F)F)cc(C(F)(F)F)c2)c1 [Example 14] |  | 5.79 |  |  |
| COc1cc2c(cc1OC)C(c1ccc(Oc3ccc(C(F)(F)F)cc3)cc1)=NCC2 [Example 6] | 5.95 | 6.03 |  |  |
| CCCCCCOc1ccc(C2=NCCc3cc(OC)c(OC)cc32)cc1 [Example 2] | 5.96 | 5.92 |  |  |
| COc1cc2c(cc1OC)C(c1ccc(Oc3ccccc3)cc1)=NCC2 (as salt: salt) [Example 1] |  |  | 209 to 210 °C |  |
| CCCCCCOc1ccc(C2=NCC(C)(C)c3ccccc32)cc1 (as salt: salt) [Example 11] |  |  | 186 to 187 °C |  |
| COc1cc2c(cc1OC)C(C)(C)CN=C2c1cccc(Oc2cc(C(F)(F)F)cc(C(F)(F)F)c2)c1 (as salt: salt) [Example 14] |  |  | 210 to 211 °C |  |

Second part, led by results:

| pIC50 [2] | pIC50 [3] | melting point | Compound | other results |
| --- | --- | --- | --- | --- |
|  |  | 172 to 173 °C | COc1cc2c(cc1OC)C(C)(C)CN=C2c1ccccc1Oc1cc(C(F)(F)F)cc(C(F)(F)F)c1 (as salt: salt) [Example 8] |  |
|  | 5.49 |  | CCCCCCOc1ccc(C2=NCC(C)(C)c3ccccc32)cc1 [Example 11] |  |
|  |  | 173 to 175 °C | COc1cc2c(c(OC)c1OC)CCN=C2c1ccc(Oc2ccccc2)cc1 (as salt: salt) [Example 3] |  |
|  |  | 181 °C | COc1cc2c(cc1OC)C(C)(C)CN=C2c1cccc(Oc2ccccc2)c1 (as salt: salt) [Example 15] |  |
|  |  | 195 to 198 °C | COc1cc2c(cc1OC)C(C)(C)CN=C2c1ccc(Oc2ccc(C(F)(F)F)cc2)cc1 (as salt: salt) [Example 5] |  |
|  | 5.74 | 141 to 142 °C | COc1cc2c(cc1OC)C(C)(C)CN=C2c1ccc(Oc2ccccc2)cc1 [Example 4] |  |
| 5.91 |  |  | CC1(C)CN=C(c2ccc(Oc3cc(C(F)(F)F)cc(C(F)(F)F)c3)cc2)c2ccccc21 [Example 16] |  |
|  |  | 197 °C | COc1cc2c(cc1OC)C(C)(C)CN=C2c1ccc(Oc2cc(C(F)(F)F)cc(C(F)(F)F)c2)cc1 (as salt: salt) [Example 7] |  |
|  |  | 215 °C | COc1cc2c(cc1OC)C(c1ccc(Oc3cc(C(F)(F)F)cc(C(F)(F)F)c3)cc1)=NCC2 (as salt: salt) [Example 10] |  |
| 6.00 | 5.90 |  | COc1cc2c(cc1OC)C(C)(C)CN=C2c1ccc(Oc2cc(C(F)(F)F)cc(C(F)(F)F)c2)cc1 [Example 7] |  |
| 5.77 | 5.50 |  | COc1cc2c(cc1OC)C(C)(C)CN=C2c1ccccc1Oc1cc(C(F)(F)F)cc(C(F)(F)F)c1 [Example 8] |  |
|  | 5.71 |  | COc1cc2c(cc1OC)C(c1ccc(Oc3cc(C(F)(F)F)cc(C(F)(F)F)c3)cc1)=NCC2 [Example 10] |  |
|  |  | 211 to 212 °C | CC1(C)CN=C(c2ccccc2Oc2cc(C(F)(F)F)cc(C(F)(F)F)c2)c2ccccc21 (as salt: hydrochloride) [Example 9, 3,4-dihydro-4,4-dimethyl-1-[2-(3,5-ditrifluoromethyl)phenoxy]phenyl-isoquinoline hydrochloride] |  |
|  |  | 218 °C | COc1cc2c(cc1OC)C(c1ccc(Oc3ccc(C(F)(F)F)cc3)cc1)=NCC2 (as salt: salt) [Example 6] |  |
